Source: patent US20240352013A1, “BICYCLIC FUSED PYRAZOLE DERIVATIVES FOR THE TREATMENT OF RESPIRATORY INFECTIONS INCLUDING RSV” (GEORGIA STATE UNIVERSITY RESEARCH FOUNDATION, INC., priority 2021, published 2024)
pEC50: −log10 of the molar value. Read-outs that look alike come from different tables or passages of the source.

Tests used:
recRSV-fireSMASh H1632Q = test: microbe, parasite or virus in culture; format: cell-based; conditions: human respiratory syncytial virus; recombinant recRSV-fireSMASh, HEp-2, RSV L H1632Q
“F1” HAE = conditions: “F1” donor primary HAE cells
recRSV-fireSMASh [1] = test: microbe, parasite or virus in culture; format: cell-based; conditions: human respiratory syncytial virus, HAE, read-out: “M4” HAE C50 (first)
recRSV-fireSMASh [2] = test: microbe, parasite or virus in culture; format: cell-based; conditions: human respiratory syncytial virus, HAE, read-out: “F1” HAE C50 (first)
[3] = Cytotoxicity assay (PrestoBlue) in HEp-2 cells; format: cell-based, human; conditions: human; HEp-2 cells, 48-hour incubation; max concentration tested
Method: (§1) To determine the effect of compound on cell metabolism, HEp-2 cells were seeded at 50% confluence in 96-well plates and were incubated with 3-fold serial dilution of compound from 5 or 50 μM as described, including positive and negative controls for normalization. After 48-hour incubation at 37° C., cells were incubated with PrestoBlue (ThermoFisher Scientific) for 1 hour at 37° C. and fluorescence measured with a H1 synergy plate reader (Biotek).
(§2) After 48-hour incubation at 37° C., cells were incubated with PrestoBlue (ThermoFisher Scientific, cat #A-13262) for 1 h at 37° C. and fluorescence measured with a H1 synergy plate reader (BioTek).

HEp-2 cells = test: Cytotoxicity assay (PrestoBlue) in HEp-2 cells; format: cell-based, human; conditions: for cytotoxicity: FIG. 24; for CC50: HEp-2 cells, 48-hour incubation, max concentration tested
Method: as §1, §2

[4] = system: recRSV-mKate harboring L1502Q; format: cell-based; conditions: recRSV with LL1502Q relative to L WT
[5] = 100 μM, previous studies; cited from earlier work
recRSV-mKate [6] = test: microbe, parasite or virus in culture; format: cell-based; conditions: 3D-HAE, progeny virus titers six days after infection, read-out: half-maximal effective concentration (EC50)
“M4” HAE = conditions: “M4” donor primary HAE cells
recRSV-fireSMASh Y1631H = test: microbe, parasite or virus in culture; format: cell-based; conditions: human respiratory syncytial virus; recombinant recRSV-fireSMASh, HEp-2, RSV L Y1631H
recRSV-fireSMASh L1502Q = test: microbe, parasite or virus in culture; format: cell-based; conditions: human respiratory syncytial virus; recombinant recRSV-fireSMASh, HEp-2, RSV L L1502Q
recRSV-A2line19F-[mKate] = test: In vivo efficacy in RSV-infected mice (lung viral titer); conditions: for in vivo lung titer reduction in RSV-infected mice: oral gavage twice daily from 10 h post-infection, lungs 4.5 days after infection; for Lung viral load reduction (log10 TCID50/ml) relative to vehicle-treated: 50 mg/kg bid, therapeutic treatment 10 hours after infection, 4.5 days post-infection
Method: For efficacy studies, mice were randomly divided into groups (n=5) and infected intranasally with 5×10^5 TCID50 (25 μl per nare) of recRSV-A2line19F-[mKate] in PBS while under anesthesia with ketamine/xylazine. Treatment (compound or vehicle) was administrated at 10 h post-infection via oral gavage in a 200 μl suspension of 1% methylcellulose and administrated twice daily. Temperature and food consumption were monitored daily, body weight was determined twice daily. All animals were euthanized at 4.5 days after infection and lungs were harvested. To determine lung viral titers, lungs were weighted and homogenized with a bead beater in 300 μl PBS in 3 bursts of 20 seconds by 5-minute rest on ice after each cycle. Samples were clarified for 5 minutes at 4° C. and 20,000×g, supernatant aliquoted and stored at −80° C. before being titrated by median tissue culture infectious dose (TCID50) normalized per gram of lung tissue and per ml of lysate. RSV viral titers were determined using standard 50% tissue infective dose (TCID50) assay in HEp-2 cells and 96 well plates, with a Spearman and Karber based method using fluorescence for detection.
Mice were divided randomly into groups of 5, and infected intranasally with 500,000 TCID50 (25 μl/nare) of recRSV-mKate in Phosphate-Buffered Saline. Mice were anesthetized with ketamine/xylazine. Treatments were administrated via oral gavage in a 200 μl suspension of 1% Methylcellulose in water. Temperature and body weight were determined on a daily and twice-daily basis, respectively. Efficacy studies were terminated at peak viral replication at 4.5 days post-infection, mice were euthanized and lungs harvested and weighted. Lung viral titers were determined after tissue homogenization with a bead beater with 300 μl PBS (3 bursts of 30 seconds at 4° C., separated by 30-second rest at 4° C.). Homogenates were clarified (5 minutes at 4° C. and 20,000×g), aliquoted and stored at −80° C. until titration. Viral titers were determined by median tissue culture infectious dose (TCID50) titration, adjusted to weight (g) of lung tissue.

measles virus polymerase = measles virus polymerase (Measles virus, UniProt P12576); conditions: found previously (45); cited from earlier work
recRSV-mKate [7] = test: Lung histopathology of RSV-infected mice; conditions: 50 mg/kg initiated 12 hours after infection
Method: Mice were divided randomly into groups of 5, and infected intranasally with 500,000 TCID50 (25 μl/nare) of recRSV-mKate in Phosphate-Buffered Saline. Mice were anesthetized with ketamine/xylazine. Treatments were administrated via oral gavage in a 200 μl suspension of 1% Methylcellulose in water. Temperature and body weight were determined on a daily and twice-daily basis, respectively. Efficacy studies were terminated at peak viral replication at 4.5 days post-infection, mice were euthanized and lungs harvested and weighted.
For histopathology, mice were subjected to cervical dislocation 4.5 days after infection and lungs perfused with 10% NBF prior to extraction. Lungs were stored in 10% NBF for 24 hours, followed by incubation in 70% EtOH for two days and embedding into wax blocks, using a 21-hour alcohol-xylene-wax embedding sequence. Blocks were sectioned at ˜4 μm thickness, sections mounted onto microscopy slides, and stained with hematoxylin and eosin (H&E). Slides were examined by a board-certified veterinary pathologist, who was blinded to the treatment groups. Lesions were scored according to the following scale. […]

[8] = orally 50 mg/kg b.i.d., starting 12 hours after infection, compared to vehicle-treated

measles virus polymerase, sequence (P03422 whole entry): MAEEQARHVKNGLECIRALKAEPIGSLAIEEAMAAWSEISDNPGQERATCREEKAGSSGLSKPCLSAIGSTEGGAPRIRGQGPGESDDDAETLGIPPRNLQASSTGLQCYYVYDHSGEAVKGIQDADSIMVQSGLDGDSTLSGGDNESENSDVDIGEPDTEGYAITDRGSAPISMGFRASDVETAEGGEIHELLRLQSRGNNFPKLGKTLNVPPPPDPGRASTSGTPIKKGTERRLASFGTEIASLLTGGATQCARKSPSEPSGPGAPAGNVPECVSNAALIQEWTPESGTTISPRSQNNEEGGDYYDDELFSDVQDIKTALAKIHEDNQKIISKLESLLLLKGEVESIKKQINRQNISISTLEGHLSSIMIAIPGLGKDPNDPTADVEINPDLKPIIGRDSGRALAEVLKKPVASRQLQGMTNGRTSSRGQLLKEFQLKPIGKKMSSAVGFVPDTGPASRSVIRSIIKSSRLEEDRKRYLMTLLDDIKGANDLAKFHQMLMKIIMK
measles virus polymerase, sequence (P12576 whole entry): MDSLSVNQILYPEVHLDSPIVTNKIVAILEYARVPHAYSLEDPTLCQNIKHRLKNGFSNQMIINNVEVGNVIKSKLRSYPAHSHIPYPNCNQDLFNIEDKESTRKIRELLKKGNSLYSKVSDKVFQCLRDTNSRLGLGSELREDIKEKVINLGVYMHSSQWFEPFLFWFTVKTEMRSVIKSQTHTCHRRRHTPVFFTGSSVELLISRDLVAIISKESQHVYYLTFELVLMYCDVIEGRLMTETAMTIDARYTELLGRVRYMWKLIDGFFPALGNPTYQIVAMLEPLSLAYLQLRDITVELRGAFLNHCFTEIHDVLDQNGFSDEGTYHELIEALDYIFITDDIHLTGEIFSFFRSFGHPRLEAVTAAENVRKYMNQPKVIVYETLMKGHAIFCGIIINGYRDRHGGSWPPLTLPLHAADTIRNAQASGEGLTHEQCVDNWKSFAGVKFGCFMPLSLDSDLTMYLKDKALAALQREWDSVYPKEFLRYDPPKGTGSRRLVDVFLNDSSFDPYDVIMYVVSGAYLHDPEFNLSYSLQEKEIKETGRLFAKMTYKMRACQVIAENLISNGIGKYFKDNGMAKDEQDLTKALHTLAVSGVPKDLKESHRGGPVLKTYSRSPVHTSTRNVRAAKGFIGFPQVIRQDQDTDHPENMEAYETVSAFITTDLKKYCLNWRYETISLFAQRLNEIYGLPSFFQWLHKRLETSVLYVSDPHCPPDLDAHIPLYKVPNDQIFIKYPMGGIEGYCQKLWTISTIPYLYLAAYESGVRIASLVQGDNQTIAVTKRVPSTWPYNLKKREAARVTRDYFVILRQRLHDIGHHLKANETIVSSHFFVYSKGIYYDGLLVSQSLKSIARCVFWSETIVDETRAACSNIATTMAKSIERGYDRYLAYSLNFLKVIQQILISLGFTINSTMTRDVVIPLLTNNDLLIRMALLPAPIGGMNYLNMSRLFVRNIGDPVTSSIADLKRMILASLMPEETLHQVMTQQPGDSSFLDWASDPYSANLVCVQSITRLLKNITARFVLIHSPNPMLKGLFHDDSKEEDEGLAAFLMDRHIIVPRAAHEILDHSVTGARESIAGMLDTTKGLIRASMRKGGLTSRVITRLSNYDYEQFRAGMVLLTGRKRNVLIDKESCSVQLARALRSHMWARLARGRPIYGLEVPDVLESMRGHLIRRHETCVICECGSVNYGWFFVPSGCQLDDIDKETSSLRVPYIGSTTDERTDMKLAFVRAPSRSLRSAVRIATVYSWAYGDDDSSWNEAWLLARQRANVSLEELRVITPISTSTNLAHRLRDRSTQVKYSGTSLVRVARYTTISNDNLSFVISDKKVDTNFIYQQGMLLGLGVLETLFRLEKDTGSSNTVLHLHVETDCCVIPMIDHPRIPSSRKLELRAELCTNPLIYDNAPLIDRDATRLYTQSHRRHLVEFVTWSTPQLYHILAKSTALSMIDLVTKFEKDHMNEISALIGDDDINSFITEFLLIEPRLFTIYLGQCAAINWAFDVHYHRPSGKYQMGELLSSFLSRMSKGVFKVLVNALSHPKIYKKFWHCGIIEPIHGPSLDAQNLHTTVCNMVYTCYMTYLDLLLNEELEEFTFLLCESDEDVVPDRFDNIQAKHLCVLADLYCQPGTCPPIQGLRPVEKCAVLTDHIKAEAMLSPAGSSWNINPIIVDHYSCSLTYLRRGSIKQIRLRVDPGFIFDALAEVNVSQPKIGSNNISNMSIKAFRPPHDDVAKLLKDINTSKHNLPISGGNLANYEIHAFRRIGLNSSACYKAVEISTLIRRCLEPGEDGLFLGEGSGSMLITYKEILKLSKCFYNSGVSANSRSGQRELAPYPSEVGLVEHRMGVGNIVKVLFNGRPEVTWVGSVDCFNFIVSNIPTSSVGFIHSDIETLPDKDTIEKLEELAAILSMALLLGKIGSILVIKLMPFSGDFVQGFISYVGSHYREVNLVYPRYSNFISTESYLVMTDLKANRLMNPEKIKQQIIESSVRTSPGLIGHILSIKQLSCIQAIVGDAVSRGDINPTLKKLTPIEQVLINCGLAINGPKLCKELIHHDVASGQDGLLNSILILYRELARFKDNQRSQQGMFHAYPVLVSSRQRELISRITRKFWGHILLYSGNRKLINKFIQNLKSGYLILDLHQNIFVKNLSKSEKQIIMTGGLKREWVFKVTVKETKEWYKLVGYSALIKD

Compound	“F1” HAE C50 (second) (“F1” HAE) [µM]	pEC50 (recRSV-fireSMASh [1])	pEC50 (recRSV-fireSMASh [2])	HEp-2 C50 (second) (HEp-2 cells) [µM]	“M4” HAE C50 (second) (“M4” HAE) [µM]	in vivo lung titer reduction in RSV-infected mice (recRSV-A2line19F-[mKate]; 50 mg/kg)	CC50 (HEp-2 cells) [nM]	Lung viral load reduction (log10 TCID50/ml) relative to vehicle-treated (recRSV-A2line19F-[mKate]) [log10 TCID50/ml]	reduction in lung viral load (recRSV-A2line19F-[mKate]; [8])	further results
COc1ccc(Cn2c3cc(=O)n(Cc4cccc(Cl)n4)c(C)c3c(=O)n2-c2ccccn2)cc1 [AVG-233]	45	6.96	6.44	50	45	50 mg/kg: −0.44 log 10	–	–	–	pEC50 (recRSV-fireSMASh H1632Q): 5.35; CC50 at 48 h [3]: > 45000 nM; cytotoxicity (HEp-2 cells): very low cytotoxicity; effect on tissue organization and tight junction integrity (3D-HAE; 200 μM, continued multi-day exposure, ZO-1 immunostaining and TEER): no negative effect on tissue organization and tight junction integrity; effect on epithelium integrity (3D-HAE; basolateral 5 μM, RSV-infected, 3 d.p.i.): without detectable negative effect; increase in EC90 [4]: > 2000 fold; cytotoxicity [5]: well-tolerated without any signs of cytotoxicity; pEC50 (recRSV-mKate [6]; human respiratory syncytial virus, 144 h): 7.15; pEC50 (recRSV-fireSMASh Y1631H): 5.66; pEC50 (recRSV-fireSMASh L1502Q): < 4.00
COc1ccc(Cn2c3cc(=O)n(Cc4cccc(Cl)n4)c(C)c3c(=O)n2-c2ncc(F)cc2F)cc1 [AVG-391]	45	6.52	6.46	45	45	–	–	–	–	–
COc1ccc(Cn2c3cc(=O)n(Cc4cccc(C(F)(F)F)n4)c(C)c3c(=O)n2-c2ccccn2)cc1 [AVG-436]	–	–	–	5	–	50 mg/kg: −0.89 log 10	> 5000	−0.89	0.89 (±0.14) log 10 TCID50/ml	–
COc1c(F)c(F)c(Cn2c3cc(=O)n(Cc4cccc(C(F)(F)F)n4)c(C)c3c(=O)n2-c2ccccn2)c(F)c1F [AVG-435]	–	–	–	5	–	50 mg/kg: −0.44 log 10	> 5000	−0.44	did not observe as much benefit	–
COc1ccc(Cn2c3cc(=O)n(Cc4cccc(C(F)(F)F)n4)c(C)c3c(=O)n2-c2ncc(F)cc2F)cc1 [AVG-392]	45	6.28	6.04	45	45	–	–	–	–	–
Cn1nc(C(F)(F)F)cc1C(=O)Nc1ccc(S(=O)(=O)N2CCCC[C@H]2CCN2CCOCC2)cc1 [ERDRP-0519]	–	–	–	–	–	–	–	–	–	phosphodiester bond formation (measles virus polymerase): completely blocks all phosphodiesterbond formation
COc1c(F)c(F)c(Cn2c3cc(=O)n(Cc4cccc(Cl)n4)c(C)c3c(=O)n2-c2ccccn2)c(F)c1F [AVG-389]	45	7.15	6.80	5	45	–	–	–	–	–
Cc1c2c(=O)n(-c3ccccn3)n(Cc3c(Cl)cccc3Cl)c2cc(=O)n1Cc1cccc(C(F)(F)F)c1 [AVG-446]	–	–	–	–	–	50 mg/kg: −0.61 log 10	–	–	–	CC50 at 48 h [3]: > 5000 nM; in vivo lung titer reduction in RSV-infected mice (recRSV-A2line19F-[mKate]; 100 mg/kg): 100 mg/kg: −1.2 log 10
Cc1c2c(=O)n(-c3ccccn3)n(Cc3c(Cl)cccc3Cl)c2cc(=O)n1Cc1cccc(C(F)(F)F)n1 [AVG-445]	–	–	–	5	–	50 mg/kg: −1.1 log 10	> 5000	−1.1	1.1 (±0.16) log 10 TCID50/ml	in vivo lung titer reduction in RSV-infected mice (recRSV-A2line19F-[mKate]; 100 mg/kg): 100 mg/kg: −1.9 log 10
O=c1nc(NO)ccn1[C@@H]1O[C@H](CO)[C@@H](O)[C@H]1O [NHC, reference compound]	–	–	–	–	–	–	–	–	–	pEC50 (recRSV-mKate [6]): 7.30
COc1c(F)c(F)c(Cn2c3cc(=O)n(Cc4cccc(Cl)n4)c(C)c3c(=O)n2-c2ncc(F)cc2F)c(F)c1F [AVG-390]	45	6.60	6.41	45	45	50 mg/kg: −0.50 log 10	> 45000	−0.5	slightly lower antiviral effect	–
COc1c(F)c(F)c(Cn2c3cc(=O)n(Cc4cccc(C(F)(F)F)n4)c(C)c3c(=O)n2-c2ncc(F)cc2F)c(F)c1F [AVG-388]	10	6.82	6.89	10	10	50 mg/kg: −1.3 log 10	–	–	1.3 (±0.25) log 10 TCID50/ml	pEC50 (recRSV-fireSMASh H1632Q): 5.32; disease progression to viral pneumonia (histopathology) (recRSV-mKate [7]): prevented disease progression to viral pneumonia; vasculitis and perivascular cuffing (histopathology) (recRSV-mKate [7]): Only one animal of the AVG-388 group showed mild vasculitis and perivascular cuffing; CC50 at 48 h [3]: > 45000 nM; cytotoxicity (HEp-2 cells): very low cytotoxicity; pEC50 (recRSV-fireSMASh Y1631H): 5.57; pEC50 (recRSV-fireSMASh L1502Q): < 4.00; in vivo lung titer reduction in RSV-infected mice (recRSV-A2line19F-[mKate]; 150 mg/kg): 150 mg/kg: −1.9 log 10; adverse effects (bodyweight and temperature) (recRSV-A2line19F-[mKate]; orally 150 mg/kg b.i.d.): without any signs of adverse effects; reduction in lung viral load (recRSV-A2line19F-[mKate]; orally 150 mg/kg b.i.d.): 1.9 (±0.23) log 10 TCID50/ml
